Results on 18 molecules are retold here after patent US11878975B2, “Substituted indole compounds useful as TLR inhibitors” (BRISTOL-MYERS SQUIBB COMPANY, priority 2017, dated 2024).

Assay type in all cases: cell-based
The target in one assay is T1, human TLR7 (Homo sapiens, UniProt Q9NYK1).
T1 construct: host or cells: HEK-Blue cells
T1 sequence (Q9NYK1 27-1049): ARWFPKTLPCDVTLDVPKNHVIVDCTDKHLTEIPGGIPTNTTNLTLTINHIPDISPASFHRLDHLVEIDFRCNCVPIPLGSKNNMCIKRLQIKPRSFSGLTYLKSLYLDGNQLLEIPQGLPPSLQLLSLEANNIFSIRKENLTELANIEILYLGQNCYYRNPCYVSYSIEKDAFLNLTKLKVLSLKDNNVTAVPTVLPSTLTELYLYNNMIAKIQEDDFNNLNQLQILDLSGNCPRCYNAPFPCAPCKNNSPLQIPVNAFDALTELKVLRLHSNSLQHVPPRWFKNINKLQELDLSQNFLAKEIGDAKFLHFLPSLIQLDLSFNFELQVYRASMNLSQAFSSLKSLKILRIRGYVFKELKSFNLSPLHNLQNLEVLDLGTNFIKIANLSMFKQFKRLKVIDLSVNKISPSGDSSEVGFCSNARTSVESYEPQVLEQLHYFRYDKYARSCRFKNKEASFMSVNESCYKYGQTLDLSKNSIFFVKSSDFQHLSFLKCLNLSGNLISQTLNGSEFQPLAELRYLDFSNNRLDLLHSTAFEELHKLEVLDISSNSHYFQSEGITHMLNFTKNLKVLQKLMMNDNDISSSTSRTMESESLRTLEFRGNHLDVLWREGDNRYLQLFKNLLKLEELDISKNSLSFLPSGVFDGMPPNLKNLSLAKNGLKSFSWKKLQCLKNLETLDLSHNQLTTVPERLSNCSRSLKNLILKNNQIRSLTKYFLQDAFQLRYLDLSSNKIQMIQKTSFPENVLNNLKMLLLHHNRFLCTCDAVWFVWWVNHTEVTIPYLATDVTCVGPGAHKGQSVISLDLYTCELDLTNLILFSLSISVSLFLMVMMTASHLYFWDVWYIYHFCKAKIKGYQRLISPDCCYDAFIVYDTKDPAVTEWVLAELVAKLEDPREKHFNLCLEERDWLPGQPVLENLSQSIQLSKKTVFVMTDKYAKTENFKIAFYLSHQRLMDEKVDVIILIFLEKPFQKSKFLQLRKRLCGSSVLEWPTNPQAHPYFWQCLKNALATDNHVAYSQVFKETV
Nature of the assay: TLR7 inhibition reporter assay (HEK-Blue cells, SEAP reporter, gardiquimod stimulation). The settings on record: HEK-Blue cells overexpressing human TLR7, SEAP reporter, gardiquimod 7.5 μM. Summed up:
(§1)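 Ligand levels: TLR7 gardiquimod 7.5 μM, TLR8 R848 15.9 μM, TLR9 ODN2006 5 nM, added after 30 min room-temperature compound pre-incubation at 0.05 nM-50 μM. Reporter SEAP read with HEK-Blue Detection reagent after 22 h, 37° C. Inhibition expressed as % reduction relative to agonist-plus-DMSO and known-inhibitor controls.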

The target in another assay is T2, human TLR9 (Homo sapiens, UniProt Q9NR96).
T2 construct: host or cells: HEK-Blue cells
T2 sequence (Q9NR96 26-1032): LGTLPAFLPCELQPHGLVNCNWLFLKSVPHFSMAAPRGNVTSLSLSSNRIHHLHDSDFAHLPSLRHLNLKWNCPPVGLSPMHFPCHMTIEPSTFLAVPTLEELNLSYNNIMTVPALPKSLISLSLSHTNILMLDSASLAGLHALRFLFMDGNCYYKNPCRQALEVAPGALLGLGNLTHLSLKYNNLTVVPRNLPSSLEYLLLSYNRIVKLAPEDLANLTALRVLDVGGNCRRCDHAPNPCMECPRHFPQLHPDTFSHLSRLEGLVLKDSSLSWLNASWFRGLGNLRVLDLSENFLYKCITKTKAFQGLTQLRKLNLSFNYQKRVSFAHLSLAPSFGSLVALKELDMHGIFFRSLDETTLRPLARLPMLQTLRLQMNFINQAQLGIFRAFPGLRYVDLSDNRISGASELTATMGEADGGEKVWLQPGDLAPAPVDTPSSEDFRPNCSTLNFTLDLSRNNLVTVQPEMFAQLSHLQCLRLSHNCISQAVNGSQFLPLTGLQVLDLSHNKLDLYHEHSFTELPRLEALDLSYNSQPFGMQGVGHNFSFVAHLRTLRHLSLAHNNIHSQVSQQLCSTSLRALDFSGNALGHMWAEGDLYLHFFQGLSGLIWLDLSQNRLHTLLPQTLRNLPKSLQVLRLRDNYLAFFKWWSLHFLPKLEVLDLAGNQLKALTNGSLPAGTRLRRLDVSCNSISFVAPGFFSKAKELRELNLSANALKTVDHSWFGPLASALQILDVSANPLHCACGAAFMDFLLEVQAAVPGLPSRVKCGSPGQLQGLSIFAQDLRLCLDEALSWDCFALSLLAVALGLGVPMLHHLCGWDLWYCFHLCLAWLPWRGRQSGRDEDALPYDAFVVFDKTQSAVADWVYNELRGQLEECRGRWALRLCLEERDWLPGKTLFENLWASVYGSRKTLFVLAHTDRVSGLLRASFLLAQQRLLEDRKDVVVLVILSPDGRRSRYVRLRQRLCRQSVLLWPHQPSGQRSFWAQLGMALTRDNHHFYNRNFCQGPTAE
As to the kind of experiment: TLR9 inhibition reporter assay (HEK-Blue cells, SEAP reporter, ODN2006 stimulation). The settings on record: HEK-Blue cells overexpressing human TLR9, SEAP reporter, ODN2006 5 nM. In outline: as §1

For a further assay, the target named is T3, human TLR8 (Homo sapiens, UniProt Q9NR97).
T3 construct: host or cells: HEK-Blue cells
T3 sequence (Q9NR97 27-1041): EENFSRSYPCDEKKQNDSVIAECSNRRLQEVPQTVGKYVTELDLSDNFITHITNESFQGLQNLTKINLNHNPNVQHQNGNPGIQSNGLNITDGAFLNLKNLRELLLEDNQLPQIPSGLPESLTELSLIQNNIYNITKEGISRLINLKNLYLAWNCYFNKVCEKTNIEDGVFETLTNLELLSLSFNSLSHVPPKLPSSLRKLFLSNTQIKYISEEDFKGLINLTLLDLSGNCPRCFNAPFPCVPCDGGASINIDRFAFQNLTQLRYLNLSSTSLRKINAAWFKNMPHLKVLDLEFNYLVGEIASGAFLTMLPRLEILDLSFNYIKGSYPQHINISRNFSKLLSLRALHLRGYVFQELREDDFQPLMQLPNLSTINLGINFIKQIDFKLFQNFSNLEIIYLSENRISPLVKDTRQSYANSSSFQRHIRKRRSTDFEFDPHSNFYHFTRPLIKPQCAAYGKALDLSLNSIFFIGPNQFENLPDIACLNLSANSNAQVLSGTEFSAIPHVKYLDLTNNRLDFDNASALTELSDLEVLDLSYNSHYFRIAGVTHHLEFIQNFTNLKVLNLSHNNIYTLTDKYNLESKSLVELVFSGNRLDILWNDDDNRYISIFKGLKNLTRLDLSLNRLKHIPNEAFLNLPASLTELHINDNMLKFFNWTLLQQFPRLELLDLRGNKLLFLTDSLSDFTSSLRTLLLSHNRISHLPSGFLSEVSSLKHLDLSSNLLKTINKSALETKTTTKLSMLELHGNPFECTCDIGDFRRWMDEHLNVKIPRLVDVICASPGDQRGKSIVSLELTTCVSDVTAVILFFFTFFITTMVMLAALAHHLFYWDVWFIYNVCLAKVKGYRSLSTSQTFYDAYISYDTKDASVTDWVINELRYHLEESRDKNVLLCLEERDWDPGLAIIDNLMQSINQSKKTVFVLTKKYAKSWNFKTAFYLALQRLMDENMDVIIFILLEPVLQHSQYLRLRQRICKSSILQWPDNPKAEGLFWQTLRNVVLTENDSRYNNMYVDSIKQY
Nature of the assay: TLR8 inhibition reporter assay (HEK-Blue cells, SEAP reporter, R848 stimulation). To be noted: HEK-Blue cells overexpressing human TLR8, SEAP reporter, R848 15.9 μM. In outline:
as §1

A value given as a limit tells only on which side of the number the result lay.

Take `CN[C@@H](C)C(=O)NC1CCC(c2ccc3[nH]c(-c4cn5ncnc5c(C)c4C)c(C(C)C)c3c2)CC1` (stereo partly drawn) [Example 131]: the half-maximal inhibitory concentration (IC50) against human TLR7 came to 0.45 nM; against human TLR9, 2990 nM; at human TLR8 it was 1 nM.

As for `CCN(C)CC(=O)NC1CCC(c2ccc3[nH]c(-c4cc(OC)c5ncnn5c4)c(C(C)C)c3c2)CC1` (stereo not drawn) [Example 132, 2-(ethyl(methyl)amino)-N-(4-(3-isopropyl-2-(8-methoxy-[1,2,4]triazole [1,5-a]pyridin-6-yl)-1H-indol-5-yl)cyclohexyl)acetamide], the IC50 worked out at 0.44 nM against human TLR7, 6040 nM on human TLR9 and 1.5 nM at human TLR8.

Regarding `COc1cc(-c2[nH]c3ccc(C4CCC(NC(=O)CN5CCCC5)CC4)cc3c2C(C)C)cn2ncnc12` (stereo not drawn) [Example 133], the values for the half-maximal inhibitory concentration (IC50) on human TLR7, against human TLR9 and against human TLR8 were 0.28 nM, 2020 nM and 0.75 nM, respectively.

`COc1cc(-c2[nH]c3ccc(C4CCC(NC(=O)CNC5(C)COC5)CC4)cc3c2C(C)C)cn2ncnc12` (stereo not drawn) [Example 135]: the values for the concentration for half-maximal inhibition (IC50) on human TLR7, on human TLR9 and against human TLR8 were 2 nM, 43800 nM and 12 nM, respectively.

Consider `COc1cc(-c2[nH]c3ccc(C4CCC(NC(=O)CNC5COC5)CC4)cc3c2C(C)C)cn2ncnc12` (stereo not drawn) [Example 137], for which the IC50 at human TLR7 was 2 nM; against human TLR9 it was 26600 nM; against human TLR8, 4.9 nM.

With `COc1cc(-c2[nH]c3ccc(C4CCC(NC(=O)CN5CC6(COC6)C5)CC4)cc3c2C(C)C)cn2ncnc12` (stereo not drawn) [Example 138], the 50% inhibitory concentration (IC50) stood at 0.41 nM against human TLR7, 4440 nM against human TLR9 and 2.5 nM against human TLR8.

As for `COc1cc(-c2[nH]c3ccc(C4CCC(NC(=O)CNC5COC5)CC4)cc3c2C(C)C)cn2ncnc12` (stereo not drawn) [Example 139], the IC50 was 18 nM against human TLR7, over 50000 nM on human TLR9 and 40 nM on human TLR8.

For the molecule `COc1cc(-c2[nH]c3ccc(C4CCC(NC(=O)CNCC(C)(C)O)CC4)cc3c2C(C)C)cn2ncnc12` (stereo not drawn) [Example 140], the IC50 at human TLR7 amounted to 0.7 nM; on human TLR9 it was 14200 nM; against human TLR8, 5.6 nM.

`COc1cc(-c2[nH]c3ccc(C4CCC(NC(=O)CN5CCOCC5)CC4)cc3c2C(C)C)cn2ncnc12` (stereo not drawn) [Example 141]: the IC50 against human TLR7 came to 2 nM; on human TLR9, 4320 nM; on human TLR8, 18 nM.

In the case of `COc1cc(-c2[nH]c3ccc(C4CCC(NC(=O)CN5CCOCC5)CC4)cc3c2C(C)C)cn2ncnc12` (stereo not drawn) [Example 142], the IC50 at human TLR7 amounted to 2 nM; against human TLR9, 4410 nM; on human TLR8 it was 14 nM.

Take `COc1cc(-c2[nH]c3ccc(C4CCC(NC(=O)CN(C)C5CC5)CC4)cc3c2C(C)C)cn2ncnc12` (stereo not drawn) [Example 143]: the results for the IC50 on human TLR7, on human TLR9 and against human TLR8 were 2 nM, 27700 nM and 8 nM, respectively.

Turning to `COc1cc(-c2[nH]c3ccc(C4CCC(NC(=O)CN5CCS(=O)(=O)CC5)CC4)cc3c2C(C)C)cn2ncnc12` (stereo not drawn) [Example 144], the values for the half-maximal inhibitory concentration (IC50) against human TLR7, at human TLR9 and at human TLR8 were 3 nM, 33300 nM and 9.7 nM, respectively.

Consider `COc1cc(-c2[nH]c3ccc(C4CCC(N(C)C(=O)CN(C)C)CC4)cc3c2C(C)C)cn2ncnc12` (stereo not drawn) [Example 147, 2-(dimethylamino)-N-(4-(3-isopropyl-2-(8-methoxy-[1,2,4]triazolo[1,5-a]pyridin-6-yl)-1H-indol-5-yl)cyclohexyl)-N-methylacetamide], for which the 50% inhibitory concentration (IC50) is 0.43 nM against human TLR7, 1490 nM at human TLR9 and 5.1 nM at human TLR8.

Regarding `Cc1cc(-c2[nH]c3ccc(C4CCC(N(C)C(=O)CN(C)C)CC4)cc3c2C(C)C)cn2ncnc12` (stereo not drawn) [Example 148], the values for the IC50 against human TLR7, at human TLR9 and on human TLR8 were 1 nM, 2440 nM and 7.7 nM, respectively.

Regarding `Cc1cc(-c2[nH]c3ccc(C4CCC(N(C)C(=O)CN(C)C)CC4)cc3c2C(C)C)cn2ncnc12` (stereo not drawn) [Example 149], the half-maximal inhibitory concentration (IC50) against human TLR7 worked out at 0.43 nM; at human TLR9, 2300 nM; at human TLR8 it was 4.6 nM.

Regarding `COc1cc(-c2[nH]c3ccc(C4CCC(N(C)CCS(C)(=O)=O)CC4)cc3c2C(C)C)cn2ncnc12` (stereo not drawn) [Example 150, 4-(3-isopropyl-2-(8-methoxy-[1,2,4]triazolo[1,5-a]pyridin-6-yl)-1H-indol-5-yl)-N-methyl-N-(2-(methylsulfonyl)ethyl)cyclohexanamine], the figures for the half-maximal inhibitory concentration (IC50) on human TLR7, at human TLR9 and at human TLR8 were 0.35 nM, 1680 nM and 0.44 nM, respectively.

Regarding `Cc1c(-c2[nH]c3ccc(C4CCC(N(C)CCS(C)(=O)=O)CC4)cc3c2C(C)C)cn2ncnc2c1C` (stereo not drawn) [Example 151], the results for the IC50 at human TLR7, against human TLR9 and against human TLR8 were 0.62 nM, 3340 nM and 0.37 nM, respectively.

Consider `COc1cc(-c2[nH]c3ccc(C4CCC(C)(NC(=O)CN(C)C)CC4)cc3c2C(C)C)cn2ncnc12` (stereo not drawn) [Example 154, 2-(dimethylamino)-N-(4-(3-isopropyl-2-(8-methoxy-[1,2,4]triazolo[1,5-a]pyridin-6-yl)-1H-indol-5-yl)-1-methylcyclohexyl)acetamide], for which the half-maximal inhibitory concentration (IC50) at human TLR7 stood at 4 nM; against human TLR9, 5680 nM; against human TLR8, 12 nM.
